In paper PMC6961345 (Antiviral Chemistry & Chemotherapy, 2018):
Several values for one entry are separate records, joined by “and”; a condition that tells them apart may be missing. Equal values may be shown once. Entries after “also recorded” stand apart in the source; their conditions may differ. Read-outs that look alike come from different tables or passages of the source.

Experiments:
[1] = test system: A/Brisbane/59/2007 (H1N1); assay: microbe, parasite or virus in culture; type: cell-based, influenza A virus; details: for EC90: two independent assays
[2] = test system: A/Tennessee/1-560/2009 (H1N1)pdm09; assay: microbe, parasite or virus in culture; type: cell-based, influenza A virus; details: for EC90: two independent assays
A/Perth/16/2009 (H3N2) = assay: microbe, parasite or virus in culture; type: cell-based, influenza A virus; details: for EC90: two independent assays
B/Texas/06/2011 = assay: microbe, parasite or virus in culture; type: cell-based, influenza B virus; details: for EC90: two independent assays
[3] = test system: A/Vietnam/1203/2004 (H5N1); assay: microbe, parasite or virus in culture; type: cell-based, influenza A virus; details: for EC90: Influenza A virus, H5N1, 48 h
A/Anhui/1/2013 (H7N9) = assay: microbe, parasite or virus in culture; type: cell-based, influenza A virus; details: for EC90: Influenza A virus, H7N9, 48 h
[4] = test system: influenza A/Brisbane/59/2007 (H1N1) virus; type: cell-based
[5] = test system: influenza A and B viruses; assay: microbe, parasite or virus in culture; type: cell-based
[6] = test system: influenza A/Brisbane/59/2007 (H1N1) virus; type: cell-based; remark: listed apart in the source
[7] = test system: influenza A/Brisbane/59/2007 (H1N1) virus; assay: Time-of-addition experiment in dNHBE cells; type: cell-based
[8] = test system: viral M gene RNA (A/Brisbane/59/2007); type: cell-based, influenza A virus; details: 8, 12, 18 and 24 h
[9] = test system: segment 7 viral, complementary, and messenger RNA (A/Brisbane/59/2007); type: cell-based, influenza A virus; details: 24 h incubation
[10] = test system: HA protein (A/Brisbane/59/2007); type: cell-based, influenza A virus
MDCK cells = details: 100 µM enisamium iodide, 24 h, n = 3 wells
[11] = test system: Undifferentiated NHBE cells; details: 2000 µM enisamium chloride, 24 h
[12] = test system: Differentiated NHBE cells; details: for enisamium uptake: 1000 µM, 2000 µM (Figure 2 legend)
[13] = CC50 divided by EC90, dNHBE cells

Compound `CCC(CC)O[C@@H]1C=C(C(=O)O)C[C@H](N)[C@H]1NC(C)=O` [oseltamivir carboxylate] has an EC90 ([1]; Influenza A virus, H1N1, 48 h) of under 1 µM, an EC90 ([2]; Influenza A virus, H1N1, 48 h) of under 1 µM and an EC90 (A/Perth/16/2009 (H3N2); Influenza A virus, H3N2, 48 h) of under 1 µM. It also gave an EC90 (B/Texas/06/2011; Influenza B virus, 48 h) of under 1 µM, an EC90 [3] of under 1 µM and an EC90 (A/Anhui/1/2013 (H7N9)) of under 1 µM. The “inhibition of virus replication at 24 and 48 h postinfection” value [4] was “inhibited virus replication”.

In the case of `C[n+]1ccc(C(=O)NCc2ccccc2)cc1` [enisamium, N-methyl-4-benzylcarbamidopyridinium], the Selectivity index [1, 13] is reported as 23, the EC90 ([1]; Influenza A virus, H1N1, 48 h) is reported as 412 µM and the EC90 [1] is reported as 466 µM. The Selectivity index [2, 13] was 34, the EC90 ([2]; Influenza A virus, H1N1, 48 h) was 233 µM and the EC90 [2] was 351 µM. It also gave a Selectivity index (A/Perth/16/2009 (H3N2); [13]) of 30, an EC90 (A/Perth/16/2009 (H3N2); Influenza A virus, H3N2, 48 h) of 287 µM and an EC90 (A/Perth/16/2009 (H3N2)) of 375 µM. For the same compound, the Selectivity index (B/Texas/06/2011; [13]) was 64, the EC90 (B/Texas/06/2011; Influenza B virus, 48 h) was 105 µM and the EC90 (B/Texas/06/2011) was 209 µM. The Selectivity index [3] was 25, the EC90 [3] was 400 µM and the Selectivity index (A/Anhui/1/2013 (H7N9)) was 24. For the same compound, the EC90 (A/Anhui/1/2013 (H7N9)) was 410 µM, the EC90 ([5]; Influenza A virus, read-out: 90% effective (EC90) concentration range) was 157 to 439 µM and the “reduction of virus titers” value ([5]; at certain concentrations, dNHBE cells) was 100 fold. For the same compound, the “Selectivity index values (CC50 divided by EC90)” value ([5]; range over all viruses tested, dNHBE cells) was 23- to 64 and > 20, the “Antiviral activity in MDCK cells (plaque number/size, virus titers)” value [6] was “no antiviral activity was found; also recorded: did not reduce; also recorded: ineffective” and the “antiviral effect at lower concentrations” value ([4]; 100 and 500 µM, 24 h pretreatment) was “did not appreciably show an antiviral effect”. The “intracellular concentration required for achieving an antiviral activity” value ([4]; dNHBE cells) was “exceeds 1885 ng/10^6 cells”, the “inhibition of virus replication (virus yield reduction)” value [7] was 2.3–2.6 log10TCID50/ml and the “reductions in virus titers” value [7] was at least 100 fold. The virus yield reduction [7] was 1.3 log10TCID50/ml and 0.7 log10TCID50/ml, the “viral M gene RNA versus untreated cells” value [8] was “lower” and the “inhibition of viral RNA synthesis” value [9] was “nearly a complete inhibition”. The “amount of detectable HA protein” value [10] was “markedly decreased”, the “Concentration of enisamium, Intracellular (mean ± SD)” value (MDCK cells) was 27.9 ± 1.4 ng/10^6 cells and the “Concentration of enisamium, Intracellular (mean ± SD)” value ([11]; n = 3 wells) was 4110 ± 830 ng/10^6 cells. The “Permeability (mean ± SD)” value ([11]; ratio intracellular to initial input) was 0.85 ± 0.21%, the “Intracellular concentration of enisamium (mean ± SD)” value ([12]; 10 µM enisamium, 24 h) was 36.8 ng/10^6 cells and 36.8 ± 3.9 ng/10^6 cells and the “Permeability (mean ± SD)” value ([12]; 10 µM enisamium, 24 h) was 1.40 ± 0.15%. The “Intracellular concentration of enisamium (mean ± SD)” value ([12]; 50 µM enisamium, 24 h) was 213 ng/10^6 cells and 213 ± 34 ng/10^6 cells, the “Permeability (mean ± SD)” value ([12]; 50 µM enisamium, 24 h) was 1.62 ± 0.26% and the “Intracellular concentration of enisamium (mean ± SD)” value ([12]; 100 µM enisamium, 24 h) was 410 ng/10^6 cells and 410 ± 77 ng/10^6 cells. The “Permeability (mean ± SD)” value ([12]; 100 µM enisamium, 24 h) was 1.56 ± 0.29%, the “Intracellular concentration of enisamium (mean ± SD)” value ([12]; 500 µM enisamium, 24 h) was 1727 ng/10^6 cells and 1727 ± 108 ng/10^6 cells and the “Permeability (mean ± SD)” value ([12]; 500 µM enisamium, 24 h) was 1.31 ± 0.08%. For the same compound, the “Intracellular concentration of enisamium (mean ± SD)” value ([12]; 1000 µM enisamium, 24 h) was 3009 ng/10^6 cells and 3009 ± 132 ng/10^6 cells, the “Permeability (mean ± SD)” value ([12]; 1000 µM enisamium, 24 h) was 1.15 ± 0.05% and the “Concentration of enisamium, Intracellular (mean ± SD)” value ([12]; 2000 µM enisamium chloride, 24 h, n = 3 wells) was 10,700 ± 1900 ng/10^6 cells. For the same compound, the “Permeability, all concentrations tested” value ([12]; 10-1000 µM enisamium, 24 h) was 1.1–1.6%, the enisamium uptake ([12]; exposure 0.25 h) was 482 ng/10^6 cells and the enisamium uptake ([12]; exposure 24 h) was 2732 ng/10^6 cells. For the same compound, the “Permeability (mean ± SD)” value ([12]; ratio intracellular to initial input, 2000 µM enisamium chloride, 24 h) was 1.9% and 1.90 ± 0.20%.
